Source: ChEMBL document CHEMBL1159316, “Bioactive saponins from Acacia tenuifolia from the suriname rainforest” (J Nat Prod, 2002)
Values after ≈ are worked out from the molar mass of the structure shown.

Assays:
Saccharomyces cerevisiae [1] = assay: Antifungal activity against Saccharomyces cerevisiae Sc7; format: functional
A2780 = assay: Cytotoxicity against human A2780 cells; format: functional, cell-based
Saccharomyces cerevisiae [2] = assay: Antifungal activity against Saccharomyces cerevisiae 1138; format: functional
Saccharomyces cerevisiae [3] = assay: Antifungal activity against Saccharomyces cerevisiae 1353; format: functional
Saccharomyces cerevisiae [4] = assay: Antifungal activity against Saccharomyces cerevisiae 1140; format: functional
M109 = assay: Cytotoxicity against mouse M109 cells; format: functional, cell-based

**Q.** `CC(=O)N[C@H]1[C@H](O[C@H]2CC[C@]3(C)[C@H]4CC=C5[C@@H]6CC(C)(C)[C@@H](OC(=O)/C=C/c7ccccc7)C[C@]6(C(=O)O)[C@H](O)C[C@@]5(C)[C@]4(C)CC[C@H]3C2(C)C)O[C@H](CO[C@@H]2OC[C@H](O)[C@H](O)[C@H]2O[C@@H]2OC[C@@H](O)[C@H](O)[C@H]2O)[C@@H](O)[C@@H]1O` [ACACIOSIDE B] was tested. Which IC12 (Saccharomyces cerevisiae [1]) did it give?
**A.** 280 µg/mL

**Q.** And the IC50 (A2780)?
**A.** 13.5 µg/mL (≈ 12.4 µM)

**Q.** And the IC12 (Saccharomyces cerevisiae [2])?
**A.** 150 µg/mL

**Q.** And the IC12 (Saccharomyces cerevisiae [3])?
**A.** 220 µg/mL

**Q.** And the IC12 (Saccharomyces cerevisiae [4])?
**A.** 220 µg/mL

**Q.** How did the IC12 (Saccharomyces cerevisiae [1]) turn out when `CC(=O)N[C@H]1[C@H](O[C@H]2CC[C@]3(C)[C@H]4CC=C5[C@@H]6CC(C)(C)CC[C@]6(C(=O)O)CC[C@@]5(C)[C@]4(C)CC[C@H]3C2(C)C)O[C@H](CO[C@@H]2OC[C@H](O)[C@H](O)[C@H]2O[C@@H]2OC[C@H](O)[C@H](O)[C@H]2O)[C@@H](O)[C@@H]1O` was run?
**A.** 45 µg/mL

**Q.** And the IC50 (M109)?
**A.** 1 µg/mL (≈ 1.08 µM)

**Q.** What about the IC12 (Saccharomyces cerevisiae [2]) of the same molecule?
**A.** 25 µg/mL

**Q.** What about the IC12 (Saccharomyces cerevisiae [3]) of the same molecule?
**A.** 30 µg/mL

**Q.** What about the IC12 (Saccharomyces cerevisiae [4]) of the same molecule?
**A.** 40 µg/mL

**Q.** For `CC(=O)N[C@H]1[C@H](O[C@H]2CC[C@]3(C)[C@H]4CC=C5[C@@H]6CC(C)(C)[C@@H](OC(=O)/C=C/c7ccccc7)C[C@]6(C(=O)O)[C@H](O)C[C@@]5(C)[C@]4(C)CC[C@H]3C2(C)C)O[C@H](CO[C@@H]2OC[C@H](O)[C@H](O)[C@H]2O[C@@H]2OC[C@H](O)[C@H](O)[C@H]2O)[C@@H](O)[C@@H]1O` [ACACIOSIDE C], which IC12 (Saccharomyces cerevisiae [1]) is on record?
**A.** 275 µg/mL

**Q.** What about the IC50 (A2780) of the same molecule?
**A.** 13 µg/mL (≈ 12 µM)

**Q.** And the IC12 (Saccharomyces cerevisiae [2])?
**A.** 160 µg/mL

**Q.** What about the IC12 (Saccharomyces cerevisiae [3]) of the same molecule?
**A.** 220 µg/mL

**Q.** What about the IC12 (Saccharomyces cerevisiae [4]) of the same molecule?
**A.** 215 µg/mL

**Q.** How did the IC12 (Saccharomyces cerevisiae [1]) turn out when `CC(=O)N[C@H]1[C@H](O[C@H]2CC[C@]3(C)[C@H]4CC=C5[C@@H]6CC(C)(C)CC[C@]6(C(=O)O)CC[C@@]5(C)[C@]4(C)CC[C@H]3C2(C)C)O[C@H](CO[C@@H]2OC[C@H](O)[C@H](O)[C@H]2O[C@@H]2OC[C@@H](O)[C@H](O)[C@H]2O)[C@@H](O)[C@@H]1O` [ALBIZIATRIOSIDE A] was run?
**A.** 30 µg/mL

**Q.** What about the IC50 (M109) of the same molecule?
**A.** 1 µg/mL (≈ 1.08 µM)

**Q.** And the IC12 (Saccharomyces cerevisiae [2])?
**A.** 30 µg/mL

**Q.** And the IC12 (Saccharomyces cerevisiae [3])?
**A.** 35 µg/mL

**Q.** And the IC12 (Saccharomyces cerevisiae [4])?
**A.** 35 µg/mL
